Experimental data from US20160237067A1, “SUBSTITUTED PHENYLALANINE DERIVATIVES” (BAYER PHARMA AKTIENGESELLSCHAFT, priority 2013, published 2016).
Counter-ions that a name gives are not always drawn.

Tests used:
[1] = biological target: T1, human factor XIa (Homo sapiens, UniProt P03951); assay: Measurement of FXIa inhibition (fluorogenic peptide substrate Boc-Glu(OBzl)-Ala-Arg-AMC); type: biochemical; settings: factor XIa from Kordia 0.45 nM; 15 min preincubation; 30 min at 22° C.
T1 construct: purchased Kordia
T1 sequence (P03951 388-625 limits assumed): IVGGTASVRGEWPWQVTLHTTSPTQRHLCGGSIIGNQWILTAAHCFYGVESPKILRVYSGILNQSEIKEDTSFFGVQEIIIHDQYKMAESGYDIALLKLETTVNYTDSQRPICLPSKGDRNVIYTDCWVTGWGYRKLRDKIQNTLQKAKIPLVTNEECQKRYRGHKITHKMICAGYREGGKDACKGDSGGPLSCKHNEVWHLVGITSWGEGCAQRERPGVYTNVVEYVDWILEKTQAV
T1 sequence (P03951 19-387 partner limits assumed): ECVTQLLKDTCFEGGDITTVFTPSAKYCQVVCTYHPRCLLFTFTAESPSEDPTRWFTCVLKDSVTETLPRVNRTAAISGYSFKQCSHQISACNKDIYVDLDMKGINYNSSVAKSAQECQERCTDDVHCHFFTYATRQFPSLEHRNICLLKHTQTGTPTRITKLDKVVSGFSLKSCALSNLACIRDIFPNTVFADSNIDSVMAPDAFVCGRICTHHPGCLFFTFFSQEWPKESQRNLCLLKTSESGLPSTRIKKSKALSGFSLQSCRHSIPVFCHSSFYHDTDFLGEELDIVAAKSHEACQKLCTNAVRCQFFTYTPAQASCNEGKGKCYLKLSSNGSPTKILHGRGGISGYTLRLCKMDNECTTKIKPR
Protocol: The factor XIa inhibition of the substances according to the invention is determined using a biochemical test system which utilizes the reaction of a peptidic factor XIa substrate to determine the enzymatic activity of human factor XIa. Here, factor XIa cleaves from the peptic factor XIa substrate the C-terminal aminomethylcoumarin (AMC), the fluorescence of which is measured. The determinations are carried out in microtitre plates.
Test substances are dissolved in dimethyl sulphoxide and serially diluted in dimethyl sulphoxide (3000 μM to 0.0078 μM; resulting final concentrations in the test: 50 μM to 0.00013 μM). In each case 1 μl of the diluted substance solutions is placed into the wells of white microtitre plates from Greiner (384 wells). Subsequently, the following are added successively: 20 μl of assay buffer (50 mmol/l Tris buffer pH 7.4; 100 mmol/l sodium chloride; 5 mmol/l calcium chloride; 0.1% bovine serum albumin) and 20 μl of factor XIa from Kordia (0.45 nM in assay buffer). After 15 min of incubation, the enzyme reaction is started by addition of 20 μl of the factor XIa substrate Boc-Glu(OBzl)-Ala-Arg-AMC dissolved in assay buffer (10 μM in assay buffer) from Bachem, the mixture is incubated at room temperature (22° C.) for 30 min and fluorescence is then measured (excitation: 360 nm, emission: 460 nm). The measured emissions of the test batches with test substance are compared to those of control batches without test substance (only dimethyl sulphoxide instead of test substance in dimethyl sulphoxide), and IC50 values are calculated from the concentration/activity relationships.

[2] = system: human and animal plasma; assay: Determination of anticoagulatory activity: activated partial thromboplastin time (aPTT) in plasma; type: biochemical; settings: C.K. Prest kit, 37° C., 3 minutes incubation, plasma species of Table B not stated
Protocol: The anticoagulatory activity of the test substances is determined in vitro in human and animal plasma (for example mouse, rat, rabbit, pig and dog plasma). To this end, blood is drawn off in a mixing ratio of sodium citrate/blood of 1:9 using a 0.11 molar sodium citrate solution as receiver. Immediately after the blood has been drawn off, it is mixed thoroughly and centrifuged at about 4000 g for 15 minutes. The supernatant is pipetted off.
The activated partial thromboplastin time (aPTT) is determined in the presence of varying concentrations of test substance or the corresponding solvent using a commercial test kit (C.K. Prest from Diagnostica Stago). The test compounds are incubated with the plasma and the PTT reagent (cephalin, kaolin) at 37° C. for 3 minutes. Coagulation is then started by addition of a 25 mM aqueous calcium chloride solution, and the time when coagulation occurs is determined. The concentration of test substance which brings about a 1.5-fold extension of the aPTT is determined Activity data from this test are listed in Table B below: […]

Row | SMILES | IC50 [1] [nM] | aPTT (concentration of test substance which brings about a 1.5-fold extension of the aPTT) [2] [µmol/L]
1 | CCOC(=O)c1cccc(-c2ccc(C[C@H](NC(=O)[C@H]3CC[C@H](CN)CC3)C(=O)Nc3ccc(-c4nn[nH]n4)cc3)cc2)c1F [Example 8, Ethyl 4′-[(2S)-2-({[trans-4-(aminomethyl)cyclohexyl]carbonyl}amino)-3-oxo-3-{[4-(2H-tetrazol-5-yl)phenyl]amino}propyl]-2-fluorobiphenyl-3-carboxylate hydrochloride] | 6.9 | 0.51
2 | Cc1ccc(C(=O)NC2CCNCC2)cc1-c1ccc(C[C@H](NC(=O)[C@H]2CC[C@H](CN)CC2)C(=O)Nc2ccc(-c3nn[nH]n3)cc2)cc1 [Example 9, hydrochloride] | 7.4 | 0.08
3 | CCN(CC)CCNC(=O)c1ccc(C)c(-c2ccc(C[C@H](NC(=O)[C@H]3CC[C@H](CN)CC3)C(=O)Nc3ccc(-c4nn[nH]n4)cc3)cc2)c1 [Example 10, 4′-[(2S)-2-({[trans-4-(Aminomethyl)cyclohexyl]carbonyl}amino)-3-oxo-3-{[4-(2H-tetrazol-5-yl)phenyl]amino}propyl]-N-[2-(diethylamino)ethyl]-6-methylbiphenyl-3-carboxamide hydrochloride] | 8 | 0.38
4 | NC[C@H]1CC[C@H](C(=O)N[C@@H](Cc2ccc(-c3cccc(C(=O)NC4CCNCC4)c3)cc2)C(=O)Nc2ccc(-c3nn[nH]n3)cc2)CC1 [Example 13, 4′-[(2S)-2-({[trans-4-(Aminomethyl)cyclohexyl]carbonyl}amino)-3-oxo-3-{[4-(2H-tetrazol-5-yl)phenyl]amino}propyl]-N-(piperidin-4-yl)biphenyl-3-carboxamide hydrochloride] | 17 | 0.28
5 | CCN(CC)CCNC(=O)c1cccc(-c2ccc(C[C@H](NC(=O)[C@H]3CC[C@H](CN)CC3)C(=O)Nc3ccc(-c4nn[nH]n4)cc3)cc2)c1 [Example 14, 4′-[(2S)-2-({[trans-4-(Aminomethyl)cyclohexyl]carbonyl}amino)-3-oxo-3-{[4-(2H-tetrazol-5-yl)phenyl]amino}propyl]-N-[2-(diethylamino)ethyl]biphenyl-3-carboxamide hydrochloride] | 15 | 0.35
6 | Cc1cc(C)c(-c2ccc(C[C@H](NC(=O)[C@H]3CC[C@H](CN)CC3)C(=O)Nc3ccc(-c4nn[nH]n4)cc3)cc2)cc1C(=O)N(C)C [Example 39, 4′-[(2S)-2-({[trans-4-(Aminomethyl)cyclohexyl]carbonyl}amino)-3-oxo-3-{[4-(2H-tetrazol-5-yl)phenyl]amino}propyl]-N,N,4,6-tetramethylbiphenyl-3-carboxamide hydrochloride] | 3.3 | –
7 | CNC(=O)c1ccc(C)c(-c2ccc(C[C@H](NC(=O)[C@H]3CC[C@H](CN)CC3)C(=O)Nc3ccc(-c4nnc(C(F)(F)C(F)(F)C(=O)O)[nH]4)cc3)cc2)c1 [Example 41, 3-{5-[4-({(2S)-2-({[trans-4-(Aminomethyl)cyclohexyl]carbonyl}amino)-3-[2′-methyl-5′-(methylcarbamoyl)biphenyl-4-yl]propanoyl}amino)phenyl]-4H-1,2,4-triazol-3-yl}-2,2,3,3-tetrafluoropropanoic acid hydrochloride] | 2.8 | –

More lines, main results first:

Row | IC50 [1] [nM] | SMILES | aPTT (concentration of test substance which brings about a 1.5-fold extension of the aPTT) [2] [µmol/L]
8 | 0.5 | Cc1ccc(S(=O)(=O)N(C)C)cc1-c1ccc(C[C@H](NC(=O)[C@H]2CC[C@H](CN)CC2)C(=O)Nc2ccc(-c3nnn[nH]3)cc2)cc1 [Example 1, trans-4-(Aminomethyl)-N-[(2S)-3-[5′-(dimethylsulphamoyl)-2′-methylbiphenyl-4-yl]-1-oxo-1-{[4-(1H-tetrazol-5-yl)phenyl]amino}propan-2-yl]cyclohexanecarboxamide hydrochloride] | 0.16
9 | 0.1 | Cc1ccc(S(=O)(=O)N2CCOCC2)cc1-c1ccc(C[C@H](NC(=O)[C@H]2CC[C@H](CN)CC2)C(=O)Nc2ccc(-c3nnn[nH]3)cc2)cc1 [Example 2, trans-4-(Aminomethyl)-N-[(2S)-3-[2′-methyl-5′-(morpholin-4-ylsulphonyl)biphenyl-4-yl]-1-oxo-1-{[4-(1H-tetrazol-5-yl)phenyl]amino}propan-2-yl]cyclohexanecarboxamide hydrochloride] | 0.22
10 | 2.8 | Cc1ccc(S(=O)(=O)N(C)C)cc1-c1ccc(C[C@H](NC(=O)[C@H]2CC[C@H](CN)CC2)C(=O)Nc2ccc(-c3nnc(Cl)[nH]3)cc2)cc1 [Example 3, trans-4-(Aminomethyl)-N-{(2S)-1-{[4-(5-chloro-4H-1,2,4-triazol-3-yl)phenyl]amino}-3-[5′-(dimethylsulphamoyl)-2′-methylbiphenyl-4-yl]-1-oxopropan-2-yl}cyclohexanecarboxamide hydrochloride] | 0.19
11 | 3.1 | NC[C@H]1CC[C@H](C(=O)N[C@@H](Cc2ccc(-c3cccc(S(N)(=O)=O)c3)cc2)C(=O)Nc2ccc(-c3nnn[nH]3)cc2)CC1 [Example 4, trans-4-(Aminomethyl)-N-[(2S)-1-oxo-3-(3′-sulphamoylbiphenyl-4-yl)-1-{[4-(1H-tetrazol-5-yl)phenyl]amino}propan-2-yl]cyclohexanecarboxamide hydrochloride] | 0.16
12 | 11 | CN1CCN(C(=O)c2cccc(-c3ccc(C[C@H](NC(=O)[C@H]4CC[C@H](CN)CC4)C(=O)Nc4ccc(-c5nnn[nH]5)cc4)cc3)c2)CC1 [Example 5, trans-4-(Aminomethyl)-N-[(2S)-3-{3′-[(4-methylpiperazin-1-yl)carbonyl]biphenyl-4-yl}-1-oxo-1-{[4-(1H-tetrazol-5-yl)phenyl]amino}propan-2-yl]cyclohexanecarboxamide hydrochloride] | 0.37
13 | 14 | NC[C@H]1CC[C@H](C(=O)N[C@@H](Cc2ccc(-c3cccc(OCCN4CCOCC4)c3)cc2)C(=O)Nc2ccc(-c3nn[nH]n3)cc2)CC1 [Example 6, trans-4-(Aminomethyl)-N-[(2S)-3-{3′-[2-(morpholin-4-yl)ethoxy]biphenyl-4-yl}-1-oxo-1-{[4-(2H-tetrazol-5-yl)phenyl]amino}propan-2-yl]cyclohexanecarboxamide hydrochloride] | 0.54
14 | 11 | Cc1ccc(S(=O)(=O)N2CCCC2)cc1-c1ccc(C[C@H](NC(=O)[C@H]2CC[C@H](CN)CC2)C(=O)Nc2ccc3[nH]c(=O)[nH]c3c2)cc1 [Example 7, trans-4-(Aminomethyl)-N-{(2S)-3-[2′-methyl-5′-(pyrrolidin-1-ylsulphonyl)biphenyl-4-yl]-1-oxo-1-[(2-oxo-2,3-dihydro-1H-benzimidazol-5-yl)amino]propan-2-yl}cyclohexanecarboxamide hydrochloride] | 0.39
15 | 6.9 | Cc1ccc(C(=O)N[C@@H]2CCNC2)cc1-c1ccc(C[C@H](NC(=O)[C@H]2CC[C@H](CN)CC2)C(=O)Nc2ccc(-c3nn[nH]n3)cc2)cc1 [Example 11, 4′-[(2S)-2-({[trans-4-(Aminomethyl)cyclohexyl]carbonyl}amino)-3-oxo-3-{[4-(2H-tetrazol-5-yl)phenyl]amino}propyl]-6-methyl-N-[(3R)-pyrrolidin-3-yl]biphenyl-3-carboxamide hydrochloride] | 0.26
16 | 8.1 | Cc1ccc(C(=O)N2CCNCC2)cc1-c1ccc(C[C@H](NC(=O)[C@H]2CC[C@H](CN)CC2)C(=O)Nc2ccc(-c3nn[nH]n3)cc2)cc1 [Example 12, trans-4-(Aminomethyl)-N-[(2S)-3-[2′-methyl-5′-(piperazin-1-ylcarbonyl)biphenyl-4-yl]-1-oxo-1-{[4-(2H-tetrazol-5-yl)phenyl]amino}propan-2-yl]cyclohexanecarboxamide hydrochloride] | 0.49
